Values after ≈ are worked out from the molar mass of the structure shown.
Conditions: buffer; pH 7.4; 200.0 µM

SMILES | solubility kinetic [µg/mL]
CC1CCCC(NC(=O)CN2C(=O)COc3ccccc32)C1C (configuration not stated) | 6.4 (≈ 20.2 µM)
CN(c1ccccc1)S(=O)(=O)c1ccc(C(=O)NCc2ccccc2F)cc1 | 10.4 (≈ 26.1 µM)
COc1ccc(CN2CCN(C3CCC3)CC2CCO)c(F)c1 (configuration not stated) | 42.2 (≈ 131 µM)
Cc1cccc(C(=O)NCCCn2ccnc2)c1C | 37.6 (≈ 146 µM)
COc1cc(OC)cc(C(=O)NCc2ccc(-n3cccc3)cc2)c1 | 0.4 (≈ 1.19 µM)
COCCN1C(=O)CS/C1=C(/C#N)C(=O)NCc1ccco1 | 41.4 (≈ 129 µM)
O=[N+]([O-])c1ccc(CN2C=NS(=O)(=O)c3ccccc32)cc1 | > 47.6
COc1cccc(OCC(O)CNC(=O)c2oc3ccc(C)cc3c2C)c1 (configuration not stated) | 20.2 (≈ 54.7 µM)
CCC(=O)NC(=S)Nc1ccc(NC(=O)c2cccnc2)cc1 | 13.1 (≈ 39.9 µM)
CN(C)CCN1CC(O)=C(c2nc3ccccc3s2)C1=N | 31.5 (≈ 104 µM)
CCCOc1ccc(Cc2c(O)nc(N)[nH]c2=O)cc1C | 15.6 (≈ 53.9 µM)
Nc1nc(Nc2cccc(F)c2)nc(N2CCOCC2)c1[N+](=O)[O-] | 2.9 (≈ 8.67 µM)
Cc1ccccc1CNC(=O)Nc1ccc(Cl)cc1 | 0.3 (≈ 1.09 µM)
CC(NCCC(Cc1ccccc1)c1ccco1)c1ccccc1 (configuration not stated) | > 47.9
COc1ccc2[nH]c(C(=O)Nc3ncc(C)cc3Br)cc2c1 | 6.1 (≈ 16.9 µM)
O=C(Nc1ccc2c(c1)OCO2)c1ccccc1 | > 36.2
Cc1ccccc1C(=O)c1c[nH]c(C(=O)N=CN(C)C)c1 | > 42.5
COc1ccc(-c2ccc(C(=O)O)c(=O)[nH]2)cc1 | > 36.8
COc1ccc(NS(=O)(=O)c2cccc(C(=O)Nc3ccccc3C(=O)O)c2)cc1 | > 64
COCCNC(=O)CN1C2CCC1CC(O)(c1cccnc1)C2 (configuration not stated) | > 47.9
COCC(=O)Nc1ccc(N2CCOCC2)c(S(=O)(=O)Nc2ccccc2OC)c1 | > 65.3

SMILES | solubility kinetic [µg/mL]
O=C(O)C1C2CCC(C2)C1C(=O)NCCc1ccc(F)cc1 (configuration not stated) | > 45.8
COc1ccccc1CNC(=O)CN1C(=O)NC2(CCOc3ccccc32)C1=O (configuration not stated) | 7.9 (≈ 20 µM)
O=C(NN1CCOCC1)c1cccc(Cl)c1 | > 36.1
Cc1cc(C)n2nc(C(=O)N/N=C/c3cn(C)nc3C)nc2n1 | > 46.8
O=C(O)CSc1nc2ccccc2n1Cc1ccccc1 | > 44.8
c1ccc(CC(NCc2ccco2)c2ccccc2)cc1 (configuration not stated) | 13.6 (≈ 49 µM)
CCCC[n+]1c(C)sc2cc(OC)ccc21.[I-] | 31.9
COCCN(C(=O)COC(=O)/C=C/c1cccc(C(F)(F)F)c1)c1c(N)n(CC(C)C)c(=O)[nH]c1=O | 5.7 (≈ 11.1 µM)
CC(C)c1onc(C(=O)N2CCC(C(N)=O)CC2)c1[N+](=O)[O-] | > 46.5
O=C(NCCc1cnc[nH]1)c1ccc(-c2ccccc2)cc1 | 28.2 (≈ 96.8 µM)
COc1ccc(C(=O)N2CCN(c3ccccn3)CC2)cc1[N+](=O)[O-] | 49.5 (≈ 145 µM)
Cc1cc(=O)oc2cc(OC(C)C(=O)NC3CCCC3)ccc12 (configuration not stated) | 44.6 (≈ 141 µM)
CCC1(C)Cc2ccccc2-c2nc(NCCCO)[nH]c(=O)c21 (configuration not stated) | 44 (≈ 140 µM)
O=C(CCS(=O)(=O)c1ccccc1)N1CCOCC1 | > 42.5
COc1ccc(OC(=O)/C=C/c2ccc([N+](=O)[O-])cc2)cc1 | < 0.6
O=C(CCNC(=O)c1ccc([N+](=O)[O-])cc1)Nc1nccs1 | 12.9 (≈ 40.3 µM)
CCCc1nc(-c2cc3cc(C)ccc3[nH]c2=O)no1 | 15 (≈ 55.7 µM)
CN(C)CCCNC(=O)c1cc(Br)ccc1O | 45.2 (≈ 150 µM)
Cn1c(=O)c2c(=O)cc(N)[nH]c2n(C)c1=O | 12.1 (≈ 54.5 µM)
O=S(=O)(O)c1nc2ccccc2[nH]1 | > 29.7
CC(=O)c1c(C)[nH]c(C(=O)OCC(=O)Nc2ccc3c(c2)OCCO3)c1C | 3.8 (≈ 10.2 µM)

Results, then the molecule that gave them:

solubility kinetic [µg/mL] | SMILES
> 53.3 | Cc1ccc(-c2csc(NC(=O)c3ccccc3F)c2C(=O)O)cc1
13.5 (≈ 27.8 µM) | COc1cccc(/C=C/C(=O)OCC(=O)Nc2cccc(S(=O)(=O)NC3=NCCCCC3)c2)c1
32.2 (≈ 149 µM) | Cc1ccc(Sc2ncccc2N)cc1
> 46.2 | CC1CCN(Cc2cc(=O)oc3cc(O)c(Cl)cc23)CC1
> 66.7 | COc1ccc(NC(=O)C2=NN(C3CCS(=O)(=O)C3)C(=O)CC2)cc1S(N)(=O)=O (configuration not stated)
1 (≈ 2.04 µM) | O=C(Nc1ccc(N2CCOCC2)c(S(=O)(=O)Nc2ccccc2Cl)c1)c1ccc(F)cc1
35.9 (≈ 114 µM) | COC(CNc1ncnc2sc(-c3ccccc3)cc12)OC
> 48.7 | Cc1cc(C)cc(N(C(C)C(=O)N2CCCC2)S(C)(=O)=O)c1 (configuration not stated)
34 (≈ 136 µM) | Cc1nc(C)c(-c2ccnc(/N=C/NO)n2)s1
19.1 (≈ 59.6 µM) | COc1ccc(/C(N)=N/OC(=O)CC2CCCCC2)cc1OC
3.9 (≈ 12.4 µM) | COCc1nc2oc3ccc(C)cc3c(=O)c2cc1C(=O)OC
6.1 (≈ 13.6 µM) | O=C(COC(=O)/C=C/c1ccc(F)cc1)Nc1ccc(S(=O)(=O)N2CCOCC2)cc1
2.6 (≈ 7.85 µM) | CC(=O)Nc1cccc(C(=O)OCCCOc2ccc(F)cc2)c1
33.3 (≈ 118 µM) | O=C(O)C1CCN(S(=O)(=O)Cc2ccccc2)CC1
6.1 (≈ 13.9 µM) | COc1ccccc1N(C)S(=O)(=O)c1ccc(C(=O)Nc2ccc(C(N)=O)cc2)cc1
> 52.2 | Cc1ccc(C(=O)NCCNC(=O)COc2ccc(Cl)cc2)cn1
29 (≈ 129 µM) | O=C1CSC(=S)N1c1cccc(O)c1
1.5 (≈ 5.33 µM) | Cc1cccc(NC(=O)/C(C#N)=C/c2ccc(F)cc2)n1
1.1 (≈ 3.17 µM) | O=C(Nc1ccc(NC(=O)c2cccs2)cc1Cl)c1ccco1
> 48.4 | CCOC(=O)C1CCN(c2c(NCCC(C)C)c(=O)c2=O)CC1

solubility kinetic [µg/mL] | SMILES
1.1 (≈ 3.31 µM) | Cc1ccc(NS(=O)(=O)c2cccc3cccnc23)c(Cl)c1
> 46 | Cc1ccc(-c2nc(NCCN(C)C)c3ccccc3n2)cc1
1.9 (≈ 5.84 µM) | O=C(Nc1ccc(NC(=O)c2ccco2)nc1)c1cccc(F)c1
> 51.4 | CC(C)(C)c1nnc(NS(=O)(=O)c2ccc([N+](=O)[O-])cc2)s1
26.4 (≈ 98.7 µM) | COc1ccc(CN2CCSCC2)c(OC)c1C
39.7 (≈ 136 µM) | O=C(NC1CCCc2ccccc21)c1cn2ccccc2n1 (configuration not stated)
49.4 (≈ 127 µM) | CC(C)OC(=O)CC1C(=O)NCCN1C(=O)COc1ccc(C(C)(C)C)cc1 (configuration not stated)
16.4 (≈ 32.6 µM) | COc1ccc(NS(=O)(=O)c2cccc(C(=O)OCC(=O)c3c(N)n(C)c(=O)n(C)c3=O)c2)cc1
> 35.3 | O=S(=O)(Nc1ncccn1)c1ccccc1
38.5 (≈ 143 µM) | CC1CCCN(C(=O)c2cc3ccccc3cc2O)C1 (configuration not stated)
3.6 (≈ 9.64 µM) | O=C(NCC1CCN(S(=O)(=O)c2ccccc2)CC1)Nc1ccccc1
> 39.6 | O=C(NCCCn1ccnc1)c1ccccc1Cl
> 43.5 | O=C(CC(=O)Nc1ccccc1F)Nc1ccccc1F
> 55.9 | COC(=O)COc1cccc2c(=O)n(CC(=O)N3CCC(C)CC3)ccc12
8.6 (≈ 28.5 µM) | CCc1noc(C)c1C(=O)Nc1nc2c(C)cccc2s1
2.3 (≈ 7.46 µM) | COc1ccc2c(=O)c(C(=O)NCc3ccccc3)c[nH]c2c1
> 45 | O=C(NCCc1ccc(Cl)cc1)c1ccc2nc[nH]c2c1
> 72.8 | CCCCN(C(=O)C1CC(=O)N(c2ccc3c(c2)OCCO3)C1)c1c(N)n(CCC)c(=O)[nH]c1=O (configuration not stated)
> 51.7 | O=C(CSc1nc2ccccc2s1)Nc1ccc(C(=O)O)cc1
> 54.5 | CSc1cccc(NC(=S)N2CCC(N(C)C3CCCC3)CC2)c1

— PubChem BioAssay AID1996
